Source: PubChem BioAssay (NCI)
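Dose response: 5 concentrations. Exposure: 48 h. Format: 96-well plates. Endpoint: linear interpolation; highest concentration if not reached. Definition used: TGI = concentration required for complete inhibition of growth.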

Key:
Assay in all cases: NCI-60 cell line screen, 48 h
[1] = tested on: HOP-92 NSCLC
[2] = tested on: NCI-H23 lung
[3] = tested on: UO-31 renal
[4] = tested on: MALME-3M melanoma
[5] = tested on: OVCAR-8 ovarian
[6] = tested on: K-562 leukemia
[7] = tested on: SN12C renal
[8] = tested on: OVCAR-5 ovarian
[9] = tested on: SNB-75 CNS
[10] = tested on: MCF7 breast
[11] = tested on: IGROV1 ovarian
[12] = tested on: EKVX NSCLC
[13] = tested on: RPMI-8226 leukemia
[14] = tested on: A549 NSCLC
[15] = tested on: KM12 colon
[16] = tested on: SNB-19 CNS
[17] = tested on: MDA-MB-435
[18] = tested on: BT-549 breast
[19] = tested on: OVCAR-4 ovarian
[20] = tested on: HS 578T breast
[21] = tested on: MOLT-4 leukemia
[22] = tested on: RXF 393 renal
[23] = tested on: UACC-257 melanoma
[24] = tested on: MDA-N
[25] = tested on: NCI/ADR-RES ovarian
[26] = tested on: DU-145 prostate
[27] = tested on: NCI-H460 lung
[28] = tested on: SW-620 colon
[29] = tested on: SF-539 CNS
[30] = tested on: HOP-62 NSCLC
[31] = tested on: SF-295 CNS
[32] = tested on: PC-3 prostate
[33] = tested on: HT29 colon
[34] = tested on: HCC-2998 colon
[35] = tested on: NCI-H522 lung
[36] = tested on: MDA-MB-231 breast
[37] = tested on: SK-MEL-2 melanoma
[38] = tested on: ACHN renal
[39] = tested on: NCI-H226 lung
[40] = tested on: A498 renal
[41] = tested on: HL-60(TB) leukemia
[42] = tested on: HCT-15 colon
[43] = tested on: CAKI-1 renal
[44] = tested on: HCT-116 colon
[45] = tested on: M14 melanoma
[46] = tested on: SK-MEL-5 melanoma
[47] = tested on: TK-10 renal
[48] = tested on: SK-OV-3 ovarian
[49] = tested on: U251 CNS
[50] = tested on: UACC-62 melanoma
[51] = tested on: SK-MEL-28 melanoma

CCOc1ccc2nc3cc(N=Nc4ccc(N)nc4N)ccc3c(N)c2c1
TGI [1]: 40.1 µM
TGI [2]: 21.9 µM
TGI [3]: > 66.3 µM
TGI [4]: 21 µM
TGI [5]: 34.3 µM
TGI [6]: 1.67 µM
TGI [7]: 6.38 µM
TGI [8]: 41.7 µM
TGI [9]: 5.11 µM
TGI [10]: 12.2 µM
TGI [11]: > 69.6 µM
TGI [12]: 45.3 µM
TGI [13]: 61.6 µM
TGI [14]: > 47.9 µM
TGI [15]: > 100 µM
TGI [16]: 3.08 µM
TGI [17]: > 100 µM
TGI [18]: 31.4 µM
TGI [19]: > 78.6 µM
TGI [20]: 15.2 µM
TGI [21]: 4.83 µM
TGI [22]: 10 µM
TGI [23]: 57.1 µM
TGI [24]: 4.99 µM
TGI [25]: > 100 µM
TGI [26]: 26.8 µM
TGI [27]: 57.6 µM
TGI [28]: > 34.9 µM
TGI [29]: 4.11 µM
TGI [30]: > 100 µM
TGI [31]: 63.4 µM
TGI [32]: 13.5 µM
TGI [33]: 14 µM
TGI [34]: 4.35 µM
TGI [35]: 8.71 µM
TGI [36]: 2.92 µM
TGI [37]: 4.66 µM
TGI [38]: 33.9 µM
TGI [39]: 59.4 µM
TGI [40]: 28.1 µM
TGI [41]: 10.1 µM
TGI [42]: > 100 µM
TGI [43]: > 100 µM
TGI [44]: 7.8 µM
TGI [45]: 51.5 µM
TGI [46]: 55.2 µM
TGI [47]: 28.6 µM
TGI [48]: > 30.3 µM
TGI [49]: 1.93 µM
TGI [50]: 33.7 µM
TGI [51]: 47.2 µM
